# Assay results as given in the supplement of paper PMC10307832.
# What was measured:
# Test in all cases: relative viability (nuclei count vs DMSO), 5 days (fraction); higher = more cells survive
# HARA = test system: HARA
# Outline: (§1)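 Relative viability was taken as the ratio of nuclei in treated wells to nuclei in vehicle wells. Lung cancer cell lines in 1536-well plates received compounds by pin tool one day after seeding, either one drug alone or a fixed anchor-drug dose plus five library-drug doses (not always all listed) in √10 steps. Nuclei were counted on 4× images after 5 days of treatment, and values are medians of duplicate plates.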
# HCC-15 = test system: HCC-15
# Outline: as §1
# NCI-H1623 = test system: NCI-H1623
# Outline: as §1
# NCI-H1793 = test system: NCI-H1793
# Outline: as §1
# NCI-H1915 = test system: NCI-H1915
# Outline: as §1
# NCI-H1975 = test system: NCI-H1975
# Outline: as §1
# NCI-H650 = test system: NCI-H650
# Outline: as §1
# SK-LU-1 = test system: SK-LU-1
# Outline: as §1
# A549 = test system: A549
# Outline: as §1
# Calu-6 = test system: Calu-6
# Outline: as §1
# EBC-1 = test system: EBC-1
# Outline: as §1
# IA-LM = test system: IA-LM
# Outline: as §1
# NCI-H1299 = test system: NCI-H1299
# Outline: as §1
# NCI-H1703 = test system: NCI-H1703
# Outline: as §1
structure (smiles),measurement,setting,value
COCC1(CO)C(=O)C2CCN1CC2 (configuration not stated) [PRIMA-1MET] + CCNC(=O)c1noc(-c2cc(C(C)C)c(O)cc2O)c1-c1ccc(CN2CCOCC2)cc1 [Luminespib] (partner 0.01 µM),relative viability,HARA; first compound 0.2 µM,0.619
same,relative viability,HARA; first compound 0.6325 µM,0.0534
same,relative viability,HARA; first compound 6.325 µM,0.675
same,relative viability,HARA; first compound 20 µM,0.654
same,relative viability,HCC-15; first compound 0.2 µM,0.264
same,relative viability,HCC-15; first compound 0.6325 µM,0.232
same,relative viability,HCC-15; first compound 2 µM,0.393
same,relative viability,HCC-15; first compound 6.325 µM,0.408
same,relative viability,HCC-15; first compound 20 µM,0.197
same,relative viability,NCI-H1623; first compound 0.2 µM,0.592
same,relative viability,NCI-H1623; first compound 0.6325 µM,0.37
same,relative viability,NCI-H1623; first compound 2 µM,0.446
same,relative viability,NCI-H1623; first compound 6.325 µM,0.426
same,relative viability,NCI-H1623; first compound 20 µM,0.247
same,relative viability,NCI-H1793; first compound 0.2 µM,0.138
same,relative viability,NCI-H1793; first compound 0.6325 µM,0.177
same,relative viability,NCI-H1793; first compound 6.325 µM,0.195
same,relative viability,NCI-H1793; first compound 20 µM,0.159
same,relative viability,NCI-H1915; first compound 0.2 µM,0.868
same,relative viability,NCI-H1915; first compound 0.6325 µM,0.506
same,relative viability,NCI-H1915; first compound 6.325 µM,0.853
same,relative viability,NCI-H1915; first compound 20 µM,0.697
same,relative viability,NCI-H1975; first compound 0.2 µM,0.33
same,relative viability,NCI-H1975; first compound 0.6325 µM,0.171
same,relative viability,NCI-H1975; first compound 2 µM,0.21
same,relative viability,NCI-H1975; first compound 6.325 µM,0.252
same,relative viability,NCI-H1975; first compound 20 µM,0.154
same,relative viability,NCI-H650; first compound 0.2 µM,1.19
same,relative viability,NCI-H650; first compound 2 µM,0.666
same,relative viability,NCI-H650; first compound 6.325 µM,0.746
same,relative viability,NCI-H650; first compound 20 µM,0.373
same,relative viability,SK-LU-1; first compound 0.2 µM,0.203
same,relative viability,SK-LU-1; first compound 0.6325 µM,0.199
same,relative viability,SK-LU-1; first compound 2 µM,0.199
same,relative viability,SK-LU-1; first compound 6.325 µM,0.212
same,relative viability,SK-LU-1; first compound 20 µM,0.137
COCC1(CO)C(=O)C2CCN1CC2 (configuration not stated) [PRIMA-1MET] + COc1cc2c(Oc3ccc(NC(=O)C4(C(=O)Nc5ccc(F)cc5)CC4)cc3F)ccnc2cc1OCCCN1CCOCC1 [Foretinib] (partner 0.25 µM),relative viability,A549; first compound 0.2 µM,1.02
same,relative viability,A549; first compound 0.6325 µM,0.834
same,relative viability,A549; first compound 2 µM,1.07
same,relative viability,A549; first compound 6.325 µM,0.807
same,relative viability,A549; first compound 20 µM,0.894
same,relative viability,Calu-6; first compound 0.2 µM,0.918
same,relative viability,Calu-6; first compound 0.6325 µM,0.649
same,relative viability,Calu-6; first compound 2 µM,0.899
same,relative viability,Calu-6; first compound 6.325 µM,0.904
same,relative viability,Calu-6; first compound 20 µM,0.335
same,relative viability,EBC-1; first compound 0.2 µM,0.101
same,relative viability,EBC-1; first compound 0.6325 µM,0.0986
same,relative viability,EBC-1; first compound 2 µM,0.105
same,relative viability,EBC-1; first compound 6.325 µM,0.107
same,relative viability,EBC-1; first compound 20 µM,0.122
same,relative viability,HARA; first compound 0.2 µM,1
same,relative viability,HARA; first compound 0.6325 µM,0.881
same,relative viability,HARA; first compound 6.325 µM,0.742
same,relative viability,HARA; first compound 20 µM,0.704
same,relative viability,HCC-15; first compound 0.2 µM,1.11
same,relative viability,HCC-15; first compound 0.6325 µM,0.986
same,relative viability,HCC-15; first compound 2 µM,1.03
same,relative viability,HCC-15; first compound 6.325 µM,1.02
same,relative viability,HCC-15; first compound 20 µM,0.555
same,relative viability,IA-LM; first compound 0.2 µM,1.07
same,relative viability,IA-LM; first compound 0.6325 µM,1.12
same,relative viability,IA-LM; first compound 2 µM,1.35
same,relative viability,IA-LM; first compound 6.325 µM,1.06
same,relative viability,IA-LM; first compound 20 µM,1.07
same,relative viability,NCI-H1299; first compound 0.2 µM,1.13
same,relative viability,NCI-H1299; first compound 0.6325 µM,1.12
same,relative viability,NCI-H1299; first compound 2 µM,1.19
same,relative viability,NCI-H1299; first compound 6.325 µM,1.12
same,relative viability,NCI-H1299; first compound 20 µM,1.02
same,relative viability,NCI-H1623; first compound 0.2 µM,0.789
same,relative viability,NCI-H1623; first compound 0.6325 µM,0.819
same,relative viability,NCI-H1623; first compound 2 µM,0.744
same,relative viability,NCI-H1623; first compound 6.325 µM,0.905
same,relative viability,NCI-H1623; first compound 20 µM,0.701
same,relative viability,NCI-H1703; first compound 0.2 µM,0.512
same,relative viability,NCI-H1703; first compound 0.6325 µM,0.368
same,relative viability,NCI-H1703; first compound 2 µM,0.353
same,relative viability,NCI-H1703; first compound 6.325 µM,0.388
same,relative viability,NCI-H1703; first compound 20 µM,0.0682
same,relative viability,NCI-H1793; first compound 0.2 µM,0.858
same,relative viability,NCI-H1793; first compound 0.6325 µM,0.563
same,relative viability,NCI-H1793; first compound 6.325 µM,0.846
same,relative viability,NCI-H1793; first compound 20 µM,0.491
same,relative viability,NCI-H1915; first compound 0.2 µM,1.12
same,relative viability,NCI-H1915; first compound 0.6325 µM,0.958
same,relative viability,NCI-H1915; first compound 6.325 µM,1.08
same,relative viability,NCI-H1915; first compound 20 µM,1.05
same,relative viability,NCI-H1975; first compound 0.2 µM,1.07
same,relative viability,NCI-H1975; first compound 0.6325 µM,0.958
same,relative viability,NCI-H1975; first compound 2 µM,0.916
same,relative viability,NCI-H1975; first compound 6.325 µM,1.01
same,relative viability,NCI-H1975; first compound 20 µM,0.626
same,relative viability,NCI-H650; first compound 0.2 µM,1.34
same,relative viability,NCI-H650; first compound 2 µM,0.917
same,relative viability,NCI-H650; first compound 6.325 µM,1.1
same,relative viability,NCI-H650; first compound 20 µM,0.644
same,relative viability,SK-LU-1; first compound 0.2 µM,1
same,relative viability,SK-LU-1; first compound 0.6325 µM,0.863
same,relative viability,SK-LU-1; first compound 2 µM,0.885
same,relative viability,SK-LU-1; first compound 6.325 µM,0.834
same,relative viability,SK-LU-1; first compound 20 µM,0.405
